Data set [1] relates to sixty human tumour cell lines. The data set is described as follows: cells. The note with it: read-out: GI50 value against sixty cell lines in nine cell panels.
Method: For each compound, dose response curves for each cell line were measured at a minimum of five concentrations at 10 fold dilutions. A protocol of 48 h continuous drug exposure was used and a sulforhodamine B (SRB) protein assay was used to estimate cell viability or growth. The concentration causing 50% cell growth inhibition (G150), total cell growth inhibition (TGI 0% growth) and 50% cell death (LC50, −50% growth) compared with the control was calculated.
Data set [2] deals with Lung A-549. Particulars: human.
The subject of data set [3] is Colon HCT-15. Particulars: human.
Data set [4] relates to Ovary OVCAR-5. The note with it: human.
Data set [5] concerns Colon 502713. The note with it: human.

Each structure is given as a SMILES string.

Take `COc1cc2c(cc1OCCCN1CCN(C(=S)SCCC(C#N)(c3ccccc3)c3ccccc3)CC1)N=C[C@@H]1CCCN1C2=O` [Compound 12b, 3-cyano-3,3-diphenylpropyl 4-(3-[(11aS)-7-(methyloxy)-5-oxo-2,3,5,11a-tetrahydro-1H-benzo[e]pyrrolo[1,2-a][1,4]diazepin-8-yl]oxypropyl)hexahydro-1-pyrazinecarbodithioate]: the GI50 (usually the concentration giving 50% growth inhibition) in data set [1] is below 2.69 µM.
As for `COc1cc2c(cc1OCCCCN1CCN(C(=S)SCCC(C#N)(c3ccccc3)c3ccccc3)CC1)N=C[C@@H]1CCCN1C2=O` [Compound 12c, 3-cyano-3,3-diphenylpropyl 4-(4-[(11aS)-7-(methyloxy)-5-oxo-2,3,5,11a-tetrahydro-1H-benzo[e]pyrrolo[1,2-a][1,4]diazepin-8-yl]oxybutyl)hexahydro-1-pyrazinecarbodithioate], the Preliminary in vitro cytotoxicity data is 31% in data set [2], 75% in data set [3], 24% in data set [4] and 75% in data set [5].

The record behind these values is US8592407B2, “Pyrrolo[2,1-c][1,4] benzodiazepine derivatives with dithiocarbamate side chains and process for the preparation thereof” (Council of Scientific & Industrial Research, priority 2008, dated 2013).
